# From patent publication US4168206A, “Impregnated disk method for testing antifungal susceptibility” (Philadelphia College of Osteopathic Medicine, priority 1977, dated 1979)
# Tests used:
# Format in all cases: cell-based
# [1] = system: Geotrichum candidum; assay: MIC by broth dilution method, Geotrichum candidum; settings: broth dilution method, read-out: Minimum Inhibitory Concentration, Broth
# Text: (§1) The preparation of the nutrient media, the antifungal agents and the fungi to be tested in the present invention are similar to those reported in S. Shadomy and A. Espinel-Ingroff, "Susceptibility Testing Of Antifungal Agents", Ch. 63, pp. 569-574 in E. H. Lennett, E. H. Spaulding, and J. P. Truant, Eds., Manual Of Clinical Microbiology, 2nd Ed., American Society for Microbiology, Washington, D.C. (1974). This publication describes the susceptibility testing of antifungal agents, namely, amphotericin B, nystatin and 5-fluoro-cytosine (5-FC), by the "broth dilution method" and the "semisolid agar dilution method". At pages 570-571, it is stated:
# (§2) In 10 duplicate runs with each strain tested, the variation in minimum inhibitory concentration averaged ±0.05 μg/ml.
# (§3) *Broth dilution method conducted in accordance with S. Shadomy and E.
# (§4) Espinel-Ingroff, "Susceptibility Testing of Antifungal Agents", Ch. 63,
# (§5) pp. 569-574 in E. H. Spaulding and J. P. Truant, Eds., Manual Of Clinical
# (§6) Microbiology, 2nd Ed., American Society for Microbiology, Washington, […]
# [2] = system: Trichosporon sp.; assay: MIC by impregnated disk method, Trichosporon sp.; settings: Trichosporon sp.; disk method; read-out: Minimum Inhibitory Concentration, Disk
# Experimental: (§7) Stock solutions of the antifungal agents to be tested are preferably prepared by diluting the antifungal agents in the proper nutrient medium. It is presently preferred to prepare dilutions in 10 ml of the proper medium to give the following final concentrations when applied to the disks (all quantities in micrograms per milliliter): 0.05, 0.08, 0.09, 0.1; 0.1 increment increases to 0.9, 1.0; 0.5 increment increases to 10.0; and 12.0, 14.0, 20.0, 25.0 and 50.0. Disks have been prepared by placing 0.05 ml of the above dilutions of antifungal agent containing medium on 6.5 mm diameter disks in 0.01 or 0.02 ml increments. The impregnated disks are then allowed to dry at a temperature preferably below about 10° C. […] The disks may also be dried by a lyophilization or freeze drying process.
# (§8) To perform the tests in accordance with the present inventions, disks impregnated with various concentrations of antifungal agent and nutrient medium and a control disk impregnated only with the corresponding nutrient medium are placed on the fungus to be tested which has been applied to the non-nutrient medium. The disks are the inoculated non-nutrient medium are then incubated at a suitable temperature for a sufficient time to promote growth of the fungus. Any temperature is suitable if it will promote growth of the fungus without adversely affecting the fungus or the activity of the antifungal agent or agents tested. The time of incubation can be determined by observing the extent of growth around the control disk. […] The zones of growth or inhibition around the disks were read at 6, 12, 24, 36 and 48 hours after the disks were placed on the tested fungus.
# (§9) The minimum inhibitory concentration is defined as the lowest concentration of antifungal agent which inhibits visible growth. […]
# (§10) Several test disks and a control disk were placed in each petri dish containing the inoculated agar. The disks and petri dishes were then incubated at 29° C. and the minimum inhibitory concentration of the various concentrations of the antifungal agents were read at 6, 12, 24, 36 and 48 hours. […]
# [3] = system: Candida albicans; assay: MIC by broth dilution method, Candida albicans; settings: Candida albicans
# Text: as §1, §2, §3, §4, §5, §6
# [4] = system: Saccharomyces cerevisiae; assay: MIC by impregnated disk method, Saccharomyces cerevisiae; settings: Saccharomyces cerevisiae
# Experimental: as §7, §8
# (§11) The minimum inhibitory concentration is defined as the lowest concentration of antifungal agent which inhibits visible growth. The disks containing concentrations of antifungal agents below the minimum inhibitory concentration show circumscribed growth of the fungus around the disk. Disks containing concentrations of antifungal agent at or above the minimum inhibitory concentration show no circumscribed growth.
# (§12) Clinical isolates of various fungi listed in Table 1 were obtained from different patients diagnosed as having fungal infections. The fungal inocula were prepared by using a 24-48 hour cultures grown in yeast nitrogen base containing 1% glucose and 0.15% asparagine. After centrifuging, the supernatant was removed, the sedimented cells were washed twice with sterile distilled water and a cell suspension was adjusted to 80% transmission at 520 nm using a Beckman DB-GT grating spectrophotometer.
# (§13) Sterile liquified 2% purified agar was placed in petri dishes and allowed to harden. The surface of the agar was inoculated with a sterile cotton swab saturated with a suspension of an organism. The uniformly swabbed plates were then allowed to dry.
# (§14) Disks were prepared using the dilutions described above for amphotericin B, nystatin and 5-fluorocytosine. 0.05 ml of the dilutions of each antifungal agent diluted with the appropriate nutrient medium were pipetted on 6.5 mm diameter disks. The disks were dried at 4° C. after each application. Control disks were also prepared.
# (§15) Several test disks and a control disk were placed in each petri dish containing the inoculated agar. The disks and petri dishes were then incubated at 29° C. and the minimum inhibitory concentration of the various concentrations of the antifungal agents were read at 6, 12, 24, 36 and 48 hours.
# as §2
# [5] = system: Trichosporon sp.; assay: MIC by broth dilution method, Trichosporon sp.; settings: Trichosporon sp.; broth dilution method; read-out: Minimum Inhibitory Concentration, Broth
# Text: as §1, §2, §3, §4, §5, §6
# [6] = system: Saccharomyces cerevisiae; assay: MIC by broth dilution method, Saccharomyces cerevisiae; settings: Saccharomyces cerevisiae
# Text: as §1, §2, §3, §4, §5, §6
# [7] = system: Torulopsis glabrata; assay: MIC by broth dilution method, Torulopsis glabrata; settings: Nakaseomyces glabratus; Torulopsis glabrata; broth dilution method; read-out: Minimum Inhibitory Concentration, Broth
# Text: as §1, §2, §3, §4, §5, §6
# [8] = system: C. parapsilosis; assay: MIC by broth dilution method, Candida parapsilosis; settings: Lodderomyces parapsilosis
# Text: as §1, §2, §3, §4, §5, §6
# [9] = system: Cryptococcus neoformans; assay: MIC by impregnated disk method, Cryptococcus neoformans; settings: Cryptococcus neoformans
# Experimental: as §7, §8, §11, §12, §13, §14, §15, §2
# [10] = system: Cryptococcus neoformans; assay: MIC by broth dilution method, Cryptococcus neoformans; settings: Cryptococcus neoformans
# Text: as §1, §2, §3, §4, §5, §6
# [11] = system: C. tropicalis; assay: MIC by impregnated disk method, Candida tropicalis; settings: Candida tropicalis; C. tropicalis; disk method; read-out: Minimum Inhibitory Concentration, Disk
# Experimental: as §7, §8, §9, §10
# [12] = system: C. tropicalis; assay: MIC by broth dilution method, Candida tropicalis; settings: Candida tropicalis; C. tropicalis; broth dilution method; read-out: Minimum Inhibitory Concentration, Broth
# Text: as §1, §2, §3, §4, §5, §6
# [13] = system: Torulopsis glabrata; assay: MIC by impregnated disk method, Torulopsis glabrata; settings: Nakaseomyces glabratus; Torulopsis glabrata; disk method; read-out: Minimum Inhibitory Concentration, Disk
# Experimental: as §7, §8, §9, §10
# [14] = system: Geotrichum candidum; assay: MIC by impregnated disk method, Geotrichum candidum; settings: disk method, read-out: Minimum Inhibitory Concentration, Disk
# Experimental: as §7, §8, §9, §10
# [15] = system: C. parapsilosis; assay: MIC by impregnated disk method, Candida parapsilosis; settings: Lodderomyces parapsilosis
# Experimental: as §7, §8, §11, §12, §13, §14, §15, §2
# [16] = system: Candida albicans; assay: MIC by impregnated disk method, Candida albicans; settings: Candida albicans
# Experimental: as §7, §8, §11, §12, §13, §14, §15, §2
compound,measurement,setting,value
"Nc1nc(=O)[nH]cc1F [5-Fluorocytosine, 5-fluorocytosine]",MIC,[1],3 µg/mL
same,MIC,[2],50 µg/mL
same,MIC,"[3]; isolate 1, read-out: Minimum Inhibitory Concentration, Broth",6.5 µg/mL
same,MIC,"[3]; isolate 2, read-out: Minimum Inhibitory Concentration, Broth",0.6 µg/mL
same,MIC,"[3]; isolate 3, read-out: Minimum Inhibitory Concentration, Broth",3 µg/mL
same,MIC,"[3]; isolate 4, read-out: Minimum Inhibitory Concentration, Broth",3.5 µg/mL
same,MIC,"[3]; isolate 5, read-out: Minimum Inhibitory Concentration, Broth",0.7 µg/mL
same,MIC,"[3]; isolate 6, read-out: Minimum Inhibitory Concentration, Broth",0.7 µg/mL
same,MIC,"[4]; S. cerevisiae isolate 2, read-out: Minimum Inhibitory Concentration, Disk",0.8 µg/mL
same,MIC,"[4]; Saccharomyces cerevisiae isolate 1, read-out: Minimum Inhibitory Concentration, Disk",1.5 µg/mL
same,MIC,[5],50 µg/mL
same,MIC,"[6]; S. cerevisiae isolate 2, read-out: Minimum Inhibitory Concentration, Broth",1 µg/mL
same,MIC,"[6]; Saccharomyces cerevisiae isolate 1, read-out: Minimum Inhibitory Concentration, Broth",2.5 µg/mL
same,MIC,[7],0.7 µg/mL
same,MIC,"[8]; C. parapsilosis isolate 1, read-out: Minimum Inhibitory Concentration, Broth",0.8 µg/mL
same,MIC,"[8]; C. parapsilosis isolate 2, read-out: Minimum Inhibitory Concentration, Broth",2 µg/mL
same,MIC,"[9]; C. neoformans isolate 2, read-out: Minimum Inhibitory Concentration, Disk",15 µg/mL
same,MIC,"[9]; Cryptococcus neoformans isolate 1, read-out: Minimum Inhibitory Concentration, Disk",10 µg/mL
same,MIC,"[10]; C. neoformans isolate 2, read-out: Minimum Inhibitory Concentration, Broth",12 µg/mL
same,MIC,"[10]; Cryptococcus neoformans isolate 1, read-out: Minimum Inhibitory Concentration, Broth",8.5 µg/mL
same,MIC,[11],7.5 µg/mL
same,MIC,[12],6 µg/mL
same,MIC,[13],0.8 µg/mL
same,MIC,[14],2.5 µg/mL
same,MIC,"[15]; C. parapsilosis isolate 1, read-out: Minimum Inhibitory Concentration, Disk",0.9 µg/mL
same,MIC,"[15]; C. parapsilosis isolate 2, read-out: Minimum Inhibitory Concentration, Disk",1.5 µg/mL
same,MIC,"[16]; isolate 1, read-out: Minimum Inhibitory Concentration, Disk",8.5 µg/mL
same,MIC,"[16]; isolate 2, read-out: Minimum Inhibitory Concentration, Disk",0.3 µg/mL
same,MIC,"[16]; isolate 3, read-out: Minimum Inhibitory Concentration, Disk",2 µg/mL
same,MIC,"[16]; isolate 4, read-out: Minimum Inhibitory Concentration, Disk",6 µg/mL
same,MIC,"[16]; isolate 5, read-out: Minimum Inhibitory Concentration, Disk",0.8 µg/mL
same,MIC,"[16]; isolate 6, read-out: Minimum Inhibitory Concentration, Disk",0.5 µg/mL
